Measured values taken from patent publication US9018218B2 (priority 2010, dated 2015).
Read-outs that look alike come from different tables or passages of the source.

Legend:
wheat powdery mildew = assay: fungicidal activity in vivo, wheat powdery mildew on wheat seedling leaves; conditions: spray, investigated after 7 days
Protocol: (§1) The procedure of determination of fungicidal activity in vivo is as follow:
The compounds of the present invention were diluted to given concentrations and sprayed on the leaves of wheat seedling at the same two-leaf stage, meanwhile, water were set as the blank control, three replicates were set for each treatment. Wheat powdery mildew spore suspension were inoculated on the second day after treatment, and then placed in greenhouse (25±2° C.) and routine management was conducted. The test results were investigated after 7 days, disease grading refers to the national standard of the People's Republic of China [The test criteria of pesticide field trial], the control effect was calculated by disease index.

cucumber downy mildew = assay: fungicidal activity in vivo, cucumber downy mildew on cucumber seedling leaves; conditions: spray, investigated after 5 days
Protocol: as §1
The compounds of the present invention were diluted to given concentrations and sprayed on the leaves of cucumber seedling at the same stage, on which growing point were cut off and two euphyllas were kept meanwhile, water were set as the blank control, three replicates were set for each treatment. Cucumber downy mildew spore suspension were inoculated on the second day after treatment, then, the plants were placed in a chamber (temperature: day 25° C., and night 20° C., relative humidity 95 to 100%), and then placed in greenhouse (25±2° C.) 24 hours later and routine management was conducted. The test results were investigated after 5 days, disease grading refers to the national standard of the People's Republic of China [The test criteria of pesticide field trial], the control effect was calculated by disease index.

wheat rust = conditions: in vivo
rice blast = assay: microbe, parasite or virus in culture; type: cell-based; conditions: for rice blast inhibition rate %: in vitro spore germination; for inhibition at 25 µg/mL / inhibition at 2.8 µg/mL / inhibition at 8.3 µg/mL: Pyricularia oryzae, read-out: rice blast inhibition rate %
[1] = 400 mg/L, spray, investigated after 7 days
[2] = 100 mg/L, spray, investigated after 7 days

Row | SMILES | wheat powdery mildew control % (wheat powdery mildew; 50 mg/L) | wheat powdery mildew control % (wheat powdery mildew; 100 mg/L) | wheat powdery mildew control % (wheat powdery mildew; 400 mg/L) | cucumber downy mildew control % (cucumber downy mildew; 50 mg/L) | cucumber downy mildew control % (cucumber downy mildew; 100 mg/L) | cucumber downy mildew control % (cucumber downy mildew; 400 mg/L) | wheat rust control % (wheat rust; [1]) | wheat rust control % (wheat rust; [2]) | rice blast inhibition rate % (rice blast; 2.8 mg/L) | rice blast inhibition rate % (rice blast; 8.3 mg/L) | rice blast inhibition rate % (rice blast; 25 mg/L) | wheat rust control % (wheat rust; 50 mg/L, spray, investigated after 7 days) | wheat rust control % (wheat rust) | inhibition at 25 µg/mL (rice blast) | melting point | inhibition at 2.8 µg/mL (rice blast) | inhibition at 8.3 µg/mL (rice blast)
1 | CCCCc1c(C)nc(Nc2ccccc2)nc1OC(=O)OC [Compound 1] | 98% | 100% | 100% | 0% | 20% | 95% | – | – | – | – | – | – | – | – | – | – | –
2 | CCCCc1c(C)nc(Nc2ccc(OC(F)(F)F)cc2)nc1OC(=O)OC [Compound 13] | – | – | 95% | – | – | 30% | 0% | – | – | – | – | – | – | – | – | – | –
3 | CCCCc1c(C)nc(Nc2ccccc2)nc1OC(=O)OC(C)C [Compound 46] | 98% | 100% | 100% | – | 10% | 95% | 100% | 0% | 80% | 100% | 100% | – | – | – | – | – | –
4 | CCCCc1c(C)nc(Nc2ccc(OC(F)(F)F)cc2)nc1OC(=O)OC(C)C [Compound 53] | – | – | 50% | – | – | 95% | 0% | – | – | – | 50% | – | – | – | – | – | –
5 | CCCCc1c(C)nc(Nc2ccccc2)nc1OC(=O)OCC [Compound 75] | 50% | 98% | 95% | – | 30% | 95% | 98% | 60% | – | – | 50% | 30% | – | – | – | – | –
6 | CCCCOC(=O)Oc1nc(Nc2ccccc2)nc(C)c1CCCC [Compound 101] | 70% | 95% | 100% | – | – | 70% | 98% | 0% | – | – | 50% | – | – | – | – | – | –
7 | CCCCc1c(C)nc(Nc2ccccc2)nc1OC(=O)OCc1ccccc1 [Compound 156] | – | 80% | 100% | – | – | 30% | – | – | – | – | – | – | 0% | 80% | – | – | –
8 | CCCCc1c(C)nc(Nc2ccccc2)nc1OC(=O)OC(C)c1ccccc1 (stereo not drawn) [Compound 173] | – | 80% | 100% | – | – | 50% | 0% | – | – | – | 50% | – | – | – | – | – | –
9 | Cc1nc(Nc2ccccc2)nc(OC(=O)OC(C)C)c1C [Compound 253] | – | – | 0% | – | – | 20% | 95% | – | 50% | 80% | 100% | – | – | – | – | – | –
10 | Cc1cc(OC(=O)OC(C)C)nc(Nc2ccccc2)n1 [Compound 270] | – | – | 0% | – | – | 0% | 60% | – | – | 0% | 100% | – | – | – | – | – | –
11 | CC(C)OC(=O)Oc1nc(Nc2ccccc2)nc2c1CCC2 [Compound 393] | – | – | 0% | – | – | 0% | – | – | – | – | – | – | 70% | 100% | 124 to 126 °C | 0% | 80%
12 | CC(C)OC(=O)Oc1nc(Nc2ccccc2)nc2c1CCCC2 [Compound 427] | – | – | 0% | – | – | 0% | 98% | – | – | 80% | 100% | – | – | – | – | – | –
13 | CC(C)OC(=O)Oc1nc(Nc2ccc(F)c(F)c2F)nc2c1CCCC2 [Compound 443] | – | – | 0% | – | – | 90% | – | – | – | – | – | – | 0% | 100% | 124 to 126 °C | 50% | 100%
14 | CCCCc1c(C)nc(N(C)C)nc1OC(=O)OCC [Compound K1, reference compound] | – | 0% | 100% | – | – | 0% | – | – | – | – | – | – | 0% | 100% | – | 0% | 80%
15 | COC(=O)Oc1cc(C2CC2)nc(Nc2ccccc2)n1 [Compound K2, reference compound] | – | – | 0% | – | – | 0% | – | – | – | – | – | – | 0% | 80% | – | – | –
